Laboratory results reported in PMC6300282, “Sulphamethazine derivatives as immunomodulating agents: New therapeutic strategies for inflammatory diseases” (PLoS ONE, 2018).

Tests used:
[1] = tested on: zymosan activated whole blood phagocytes; assay: Oxidative burst assay (luminol-enhanced chemiluminescence), whole blood; type: cell-based; details: human whole blood, serum opsonized zymosan, three doses 1, 10, 100 μg/mL, mean ± SD of three, NA = Not active, read-out: Oxidative Burst Inhibition (IC50) WB
Protocol: (§1) Luminol-enhanced chemiluminescence assay was performed, as described by Helfandet al., 1982 [17], with some modifications. Briefly 25 μL of diluted whole blood in HBSS^++ (Hanks Balanced Salt Solution, containing calcium chloride and magnesium chloride) [Sigma, St. Louis, USA] was incubated with 25 μL of three different concentrations of compounds (1, 10, and 100 μg/mL), each in triplicate. Control wells received HBSS^++ and cells, but no compounds. Test was performed in white half area 96-well plates [Costar, NY, USA], which was incubated at 37 °C for 15 minutes in the thermostat chamber of luminometer [Labsystems, Helsinki, Finland]. After incubation, 25 μL of serum opsonized zymosan (SOZ) [Fluka, Buchs, Switzerland] and 25 μL of intracellular reactive oxygen species detecting probe, luminol [Research Organics, Cleveland, OH, USA] were added into each well, except blank wells (containing only HBSS^++). The level of the ROS was recorded in luminometer in term of relative light units (RLU).

[2] = tested on: isolated polymorphonuclear neutrophils (PMNs); assay: Oxidative burst assay (luminol-enhanced chemiluminescence), isolated PMNs; type: cell-based; details: Polymorphonuclear neutrophil, isolated human PMNs, zymosan, three doses 1, 10, 100 μg/mL, mean ± SD of three, read-out: Oxidative Burst Inhibition (IC50) PMNs
Text: Heparinized blood was obtained by vein puncture aseptically from healthy volunteers. The PMNs were isolated by ficoll-Hypaque density gradient method. The cells were isolated after centrifugation from the tube base. Cells were washed twice and suspended in Hank’s Balance salt solution (HBSS^--) (Ca^2+ and Mg^2+ free), RBCs were lysed using hypotonic solution. Cells were adjusted to their required concentration (1x10^6 cells/mL) using HBSS^++containing Ca^2+ and Mg^2+.
as §1

[3] = tested on: nitric oxide (NO) production from LPS activated J774.2 mouse macrophages; assay: Nitric oxide production (Griess), LPS activated macrophages; type: cell-based; details: J774.2 cells, 30 μg/mL LPS, three doses 1, 10, 100 μg/mL, mean ± SD of three, read-out: NO Inhibition (IC50)
Protocol: The mouse macrophage cell line J774.2 (European Collection of Cell Cultures, UK) was cultured in 75 cc flasks IWAKI (Asahi Techno Glass, Japan) in DMEM Sigma-Aldrich (Steinheim, Germany) supplemented with 10% fetal bovine serum GIBCO (New York, USA)1% streptomycin/penicillin. Flasks were kept at 37 °C in atmosphere of humidified air containing 5% CO2, cells were seeded in 96-well plate (10^6 cells/mL) and were induced by 30 μg/mL e. coli lipopolysaccharide (LPS) (DIFCO Laboratories michigon, USA). The test compounds were added at concentrations of (1, 10 and 100 μg/mL) and plate was incubated at 37 °C in 5% CO2. Nitrite accumulation in culture supernatant was measured using the Griess reagents as described previously.

[4] = tested on: TNF-α production from THP-1 human monocytic leukemia cell line; assay: TNF-α production (ELISA), LPS stimulated THP-1 cells; type: cell-based; details: PMA-differentiated THP-1 cells, 50 ng/mL LPS, 4 hours; three doses 1, 10, 100 μg/mL; mean ± SD of three
Text: RPMI-1640 (R8758, Sigma Aldrich, St. Louis, USA); L-glutamine (25030081, Gibco, California, USA); D-glucose (G8270, Sigma Aldrich, St. Louis, USA); 2-mercaptoethanol (190242, MP Biomedicals, lllkirch, France); sodium pyruvate (11360–070, Gibco, California, USA); FBS (A11-104, PAA Laboratories, Pasching, Austria); HEPES (H3375, Sigma Aldrich, St. Louis, USA); PMA (151864, MP Biomedicals, lllkirch, France); lipopolysaccharide B of E. coli 0111:B4 (LPS) (3922–25, DIFCO Laboratories, USA); 24-well tissue culture plates (CLS3524, Corning, Dublin, USA); Flat bottom 96-well tissue culture plates (CLS3300, Corning, New York, USA). BSA (151429, MP Biomedicals, lllkirch, France); PBS tablets (41620016–4, Bioworld, Dublin, Ireland); Tween 20 (822184, Merck, Damstadt, Germany); Human TNF-α DuoSet ELISA Kit (DY210, R&D Systems, Minneapolis, USA); Human IL-1β DuoSet ELISA Kit (DY201, R&D Systems, Minneapolis, USA); and Human IL-2 DuoSet ELISA Kit (DY202, R&D Systems, Minneapolis, USA); ELISA plate sealers (DY992, R&D Systems, Minneapolis, USA); Clear flat bottom 96-well microplates (DY990, R&D Systems, Minneapolis, USA). Human monocytic leukemia cells THP-1 were obtained from (European Collection of Cell Cultures, UK). The cells were maintained in RPMI-1640 containing 5.5 mmol/L glucose (BioM Laboratories, Chemical Division, Malaysia), 50 μmol/L mercaptoethanol (Merck Damstadt, Germany), 10% FBS (fetal bovine serum), 2 mmol/L; L-glutamine (PAA Laboratories, GmbH, Pasching, Austria). Cells were grown in 75 cc flasks, harvested and 2.5×10^5 cells/mL was then plated in 24-well tissue culture plates. 20 ng/mL of phorbol-12-myristate-13-acetate (PMA), (SERVA, Heidelberg, Germany) was added followed by incubation for 24 hours at 37 °C in 5% CO2to convert them into macrophage like cell. Cells were then stimulated with E. coli lipopolysacchride B, (DIFCO Laboratories, michigon, USA) at a final concentration of 50 ng/mL and treated with compounds at three different concentration (1, 10 and 100 μg/mL) and then incubated for 4 hours at 37 °C in 5% CO2. The supernatants collected were analyzed for the level of TNF -α using the human TNF-α Duo Set ELISA (R&D Systems, Minneapolis, USA), and according to manufacturer’s instructions.

[5] = tested on: Salmonella typhi (ATCC 14028); assay: Microplate Alamar Blue Assay, Salmonella typhi; type: cell-based; details: 200 μg/mL, NI = No inhibition; for inhibition at 200 µg/mL: Salmonella enterica, read-out: Percentage (%) Inhibition, Slamonella typhi
Protocol: (§2) The anti-bacterial activity of synthesized compound were evaluated by the Microplate Alamar Blue Assay. Staphylococcus aureus (ATCC 25923), Pseudomonas aeruginosa(POA 286), Salmonella typhi (ATCC 14028), Bacillus subtilis ATCC 6633) and Escherichia coli (ATCC 12022) were used in this study as a standard bacterial strains and they were obtained from microbial bank of PCMD, International Center for Chemical and Biological Sciences, University of Karachi, Karachi-75270, Pakistan. The bacterial colonies grown in Trypton Soya Agar (TSA) (Oxoid Limited, UK) were inoculated in Mueller Hinton Broth (MHB) (Oxoid Limited, UK) and incubated overnight at 37 °C. Fully grown bacterial cultures were then diluted to adjust with 0.5 McFarland Turbidity Index (equivalent to 1.5 × 10^8 CFU/mL). Stock solutions (4 mg/mL) of different test compounds were prepared in DMSO and 10μL each of these stock solutions were placed in well of flat bottom, polystyrene, sterile 96-wells plate except the positive control wells (media + bacteria). This gives 200μg/mL concentrations of compounds in final 200 μL solution. Each compound was run in triplicates. Finally, bacterial suspension (5 x 10^6 CFU/mL) was added in each well. Plates were sealed by parafilm and incubated at 37 °C for 18–22 hrs. Next day, 20 μL of 0.02% resazurin sodium salt dye (Chem-Impex-Int’LInc) was added in each well and incubated in shaking incubator at 80 rpm, 37 °C for 2–3 hrs. The color change from blue to reddish pink indicates the growth of bacteria. For quantitative analysis, plates were read at 570 nm and 600 nm in Multiskan GOmicroplate spectrophotometer, (Thermo Scientific, USA). The % inhibition of bacterial growth was calculated using below mentioned formula.
(§3) For the calculation of the % difference in reduction between treated and control cells in cytotoxicity/proliferation assays: =(εOX)λ2Aλ1-(εOX)λ1Aλ2oftestagent/(εOX)λ2A°λ1-(εOX)λ1A°λ2ofpositivegrowthcontrol×100

[6] = tested on: Pseudomonas aeruginosa (POA 286); assay: Microplate Alamar Blue Assay, Pseudomonas aeruginosa; type: cell-based; details: 200 μg/mL, NI = No inhibition; for inhibition at 200 µg/mL: Pseudomonas aeruginosa, read-out: Percentage (%) Inhibition, Pseudomonas aerugenosa
Protocol: as §2, §3

[7] = tested on: Staphylococcus aureus (ATCC 25923); assay: Microplate Alamar Blue Assay, Staphylococcus aureus; type: cell-based; details: 200 μg/mL, NI = No inhibition; for inhibition at 200 µg/mL: Staphylococcus aureus, ATCC25923, read-out: Percentage (%) Inhibition, Staphylococcus aureus
Protocol: as §2, §3

[8] = tested on: Bacillus subtilis (ATCC 6633); assay: Microplate Alamar Blue Assay, Bacillus subtilis; type: cell-based; details: ATCC6633, 200 μg/mL, NI = No inhibition, read-out: Percentage (%) Inhibition, Bacillus subtilis
Protocol: as §2, §3

[9] = tested on: Escherichia coli (ATCC 12022); assay: Microplate Alamar Blue Assay, Escherichia coli; type: cell-based; details: ATCC12022, 200 μg/mL, NI = No inhibition, read-out: Percentage (%) Inhibition, Escherichia coli
Protocol: as §2, §3

MTT cytotoxicity assay = type: cell-based, mouse; details: mouse; MTT, 48 hours; read-out: Cytotoxicity NIH-3T3 cell line (IC50)
Protocol: (§4) The cytotoxicity was recorded as concentration causing 50% growth inhibition (IC50).

[10] = tested on: mouse fibroblast NIH-3T3 cell line; assay: MTT cytotoxicity assay; type: cell-based; details: MTT, 48 hours
Protocol: as §4

Structure (SMILES) | inhibition at 200 µg/mL [5] | inhibition at 200 µg/mL [6] | inhibition at 200 µg/mL [7] | inhibition at 200 µg/mL [8] | inhibition at 200 µg/mL [9] | IC50 (MTT cytotoxicity assay) | other results
CC(C)Cc1ccc(C(C)C(=O)O)cc1 (centres unmarked) [40 (Ibuprofen), Ibuprofen, reference compound] | – | – | – | – | – | – | IC50 [1]: 11.2 ± 1.9 µg/mL; IC50 [2]: 2.5 ± 0.6 µg/mL
[H]/N=C(/NC)NCCC[C@H](N)C(=O)O [41 (L-NMMA), NG monomethyl L-arginine acetate, reference compound] | – | – | – | – | – | – | IC50 [3]: 24.2 ± 0.6 µg/mL
CC(=O)CCCCn1c(=O)c2c(ncn2C)n(C)c1=O [42 (Pentoxifillin), Pentoxifillin, reference compound] | – | – | – | – | – | – | TNF-α Inhibition (IC50) [4]: 94.8 ± 2.1 µg/mL
Cc1cc(C)nc(NS(=O)(=O)c2ccc(NC(=O)C34CCC(C)(C(=O)O3)C4(C)C)cc2)n1 (centres unmarked) [Compound 15, N-(4-(N-(4,6-dimethylpyrimidin-2-yl)sulfamoyl)phenyl)-4,7,7-trimethyl-3-oxo-2-oxabicyclo[2.2.1]heptane-1-carboxamide] | 29.3% | 29.4% | 14.1% | 38.4% | < 0% | > 30 µM | melting point: 254 to 256 °C
Cc1cc(C)nc(NS(=O)(=O)c2ccc(NC(=O)c3cccc(C(F)(F)F)c3)cc2)n1 [Compound 20] | – | – | – | – | – | – | Percentage (%) Inhibition, Slamonella typhi [5]: 9.30%; Percentage (%) Inhibition, Pseudomonas aerugenosa [6]: 1.66%; Percentage (%) Inhibition, Staphylococcus aureus [7]: 30.78%; IC50 [10]: > 30 µM
Cc1cc(C)nc(NS(=O)(=O)c2ccc(NC(=O)c3ccc(Cl)cc3Cl)cc2)n1 [Compound 24, 2,4-dichloro-N-(4-(N-(4,6-dimethylpyrimidin-2-yl)sulfamoyl)phenyl)benzamide] | 18.4% | < 0% | 48.4% | < 0% | 7.45% | > 30 µM | melting point: 233 to 236 °C
Cc1cc(C)nc(NS(=O)(=O)c2ccc(NC(=O)c3ccccc3C)cc2)n1 [Compound 35, N-(4-(N-(4,6-dimethylpyrimidin-2-yl)sulfamoyl)phenyl)-2-methylbenzamide] | 0.2% | 16.5% | < 0% | < 0% | < 0% | > 30 µM | –
Cc1cccc(C(=O)Nc2ccc(S(=O)(=O)Nc3nc(C)cc(C)n3)cc2)c1 [Compound 36, N-(4-(N-(4,6-dimethylpyrimidin-2-yl)sulfamoyl)phenyl)-3-methylbenzamide] | < 0% | 20.5% | < 0% | < 0% | < 0% | > 30 µM | –
Cc1cc(C)nc(NS(=O)(=O)c2ccc(NC(=O)CCc3ccccc3)cc2)n1 [Compound 37, N-(4-(N-(4,6-dimethylpyrimidin-2-yl)sulfamoyl)phenyl)-3-phenylpropanamide] | < 0% | < 0% | 10.2% | < 0% | < 0% | > 30 µM | –
Cc1cc(C)cc(C(=O)Nc2ccc(S(=O)(=O)Nc3nc(C)cc(C)n3)cc2)c1 [Compound 38, N-(4-(N-(4,6-dimethylpyrimidin-2-yl)sulfamoyl)phenyl)-3,5-dimethylbenzamide] | < 0% | 19% | < 0% | < 0% | < 0% | > 30 µM | melting point: 216 to 218 °C
Cc1cc(C)nc(NS(=O)(=O)c2ccc(NC(=O)c3ccccc3)cc2)n1 [Compound 39, N-(4-(N-(4,6-dimethylpyrimidin-2-yl)sulfamoyl)phenyl)benzamide] | 12.5% | < 0% | 41.1% | < 0% | 1.84% | > 30 µM | –
